Assay results from patent US6673827B1, “Methods of treating fungal infections with inhibitors of NAD synthetase enzyme” (priority 1999, dated 2004).
In brackets after ≈: the same amount, converted by molar mass. Several values for one entry are separate records, joined by “and”; a condition that tells them apart may be missing. Equal values may be shown once. Read-outs that look alike come from different tables or passages of the source.

Columns and labels:
Assay type in all cases: cell-based
[1] = tested on: Candida tropicalis ATCC 750; assay: In vitro study of inhibition of growth and lethality against yeast (MIC/MLC susceptibility test), isolate A; settings: for Minimum Lethal Concentration (MLC), A: Table 4B summary, isolate A
[2] = tested on: Candida tropicalis ATCC 28707; assay: In vitro study of inhibition of growth and lethality against yeast (MIC/MLC susceptibility test), isolate B; settings: for Minimum Lethal Concentration (MLC), B: Table 4B summary, isolate B
[3] = tested on: Candida albicans KJP-000531594; assay: In vitro study of inhibition of growth and lethality against yeast (MIC/MLC susceptibility test), isolate C; settings: for Minimum Inhibitory Conc. (MIC), 24 hr. / Minimum Inhibitory Conc. (MIC), 48 hr. / MIC: Candida albicans; for Minimum Lethal Concentration (MLC), C: Table 4B summary, isolate C
[4] = tested on: Candida albicans LH-000664533; assay: In vitro study of inhibition of growth and lethality against yeast (MIC/MLC susceptibility test), isolate D; settings: for Minimum Lethal Concentration (MLC), D: Table 4B summary, isolate D
[5] = tested on: Torulopsis glabrata JHC-BC9951635; assay: In vitro study of inhibition of growth and lethality against yeast (MIC/MLC susceptibility test), isolate E; settings: for Minimum Inhibitory Conc. (MIC), 24 hr. / Minimum Inhibitory Conc. (MIC), 48 hr. / MIC: isolate assigned by line order; for MIC: Nakaseomyces glabratus; for Minimum Lethal Concentration (MLC), E: Table 4B summary, isolate E
[6] = tested on: Torulopsis glabrata ERH-BC9938274; assay: In vitro study of inhibition of growth and lethality against yeast (MIC/MLC susceptibility test), isolate F; settings: for Minimum Inhibitory Conc. (MIC), 24 hr.: read at 24 hr; for MIC: Nakaseomyces glabratus; for Minimum Lethal Concentration (MLC), F: Table 4B summary, isolate F
[7] = tested on: Cryptococcus neoformans DLB-1027594CNC; assay: In vitro study of inhibition of growth and lethality against yeast (MIC/MLC susceptibility test), isolate G; settings: for MIC: DLB1027594CNC; for Minimum Lethal Concentration (MLC), G: Table 4B summary, isolate G
[8] = tested on: Cryptococcus neoformans SLP-BC0012854; assay: In vitro study of inhibition of growth and lethality against yeast (MIC/MLC susceptibility test), isolate H; settings: for Minimum Lethal Concentration (MLC), H: Table 4B summary, isolate H
[9] = 1st pair of lines, read at 24 hr, isolate not given, assigned by line order and MLC of Table 4B
[10] = 1st pair of lines, read at 48 hr, isolate assigned by line order
[11] = Torulopsis glabrata, 2nd pair of lines, read at 24 hr
[12] = Torulopsis glabrata, 2nd pair of lines, read at 48 hr
[13] = Torulopsis glabrata, 1st pair of lines, isolate assigned by line order
[14] = Cryptococcus neoformans, 1st pair of lines, read at 72 hr, isolate assigned by line order

## C[C@@H]1[C@H](O)[C@@H](C)/C=C/C=C/C=C/C=C/C=C/C=C/C=C/[C@H](O[C@@H]2O[C@H](C)[C@@H](O)[C@H](N)[C@@H]2O)C[C@@H]2O[C@](O)(C[C@@H](O)C[C@@H](O)[C@H](O)CC[C@@H](O)C[C@@H](O)CC(=O)O[C@H]1C)C[C@H](O)[C@H]2C(=O)O [Amphotericin B]
[1]; Candida tropicalis, 2nd pair of lines, read at 24 hr, isolate assigned by line order
  Minimum Inhibitory Conc. (MIC), 24 hr.: 0.5 µg/mL
[1]; Candida tropicalis, 2nd pair of lines, read at 48 hr, isolate assigned by line order
  Minimum Inhibitory Conc. (MIC), 48 hr.: 0.5 µg/mL and 1 µg/mL
[2]; Candida tropicalis, 1st pair of lines, read at 24 hr, isolate assigned by line order
  Minimum Inhibitory Conc. (MIC), 24 hr.: 2 µg/mL
[2]; Candida tropicalis, 1st pair of lines, read at 48 hr, isolate assigned by line order
  Minimum Inhibitory Conc. (MIC), 48 hr.: 4 µg/mL
[3]; [9]
  Minimum Inhibitory Conc. (MIC), 24 hr.: 0.5 µg/mL
[3]; [10]
  Minimum Inhibitory Conc. (MIC), 48 hr.: 1 µg/mL
[4]; Candida albicans, 2nd pair of lines, read at 24 hr, isolate assigned by line order
  Minimum Inhibitory Conc. (MIC), 24 hr.: 0.5 µg/mL
[4]; Candida albicans, 2nd pair of lines, read at 48 hr, isolate assigned by line order
  Minimum Inhibitory Conc. (MIC), 48 hr.: 0.5 µg/mL
[5]; [11]
  Minimum Inhibitory Conc. (MIC), 24 hr.: 0.5 µg/mL
[5]; [12]
  Minimum Inhibitory Conc. (MIC), 48 hr.: 1 µg/mL and 0.5 µg/mL
[6]; [13]
  Minimum Inhibitory Conc. (MIC), 24 hr.: 0.5 µg/mL
[6]; Torulopsis glabrata, 1st pair of lines, read at 48 hr, isolate assigned by line order
  Minimum Inhibitory Conc. (MIC), 48 hr.: 1 µg/mL
[7]; Cryptococcus neoformans, 1st pair of lines, read at 48 hr, isolate assigned by line order
  Minimum Inhibitory Conc. (MIC), 48 hr.: 0.25 µg/mL
[7]; [14]
  Minimum Inhibitory Conc. (MIC), 72 hr.: 0.25 µg/mL
[8]; Cryptococcus neoformans, 2nd pair of lines, read at 48 hr, isolate assigned by line order
  Minimum Inhibitory Conc. (MIC), 48 hr.: 0.5 µg/mL and 0.25 µg/mL

## OC(Cn1cncn1)(Cn1cncn1)c1ccc(F)cc1F [Fluconazole]
[1]; Candida tropicalis, ATCC750, 24 h, Candida tropicalis, 2nd pair of lines, read at 24 hr, isolate assigned by line order, read-out: Minimum Inhibitory Conc. (MIC), 24 hr.
  MIC: 1 µg/mL (≈ 3.27 µM)
[1]; Candida tropicalis, ATCC750, 48 h, Candida tropicalis, 2nd pair of lines, read at 48 hr, isolate assigned by line order, read-out: Minimum Inhibitory Conc. (MIC), 48 hr.
  MIC: 4 µg/mL (≈ 13.1 µM)
[3]; [10]
  Minimum Inhibitory Conc. (MIC), 48 hr.: 2 µg/mL
[3]; KJP000531594, 24 h, 1st pair of lines, read at 24 hr, isolate not given, assigned by line order and MLC of Table 4B, read-out: Minimum Inhibitory Conc. (MIC), 24 hr.
  MIC: 0.5 µg/mL (≈ 1.63 µM)
[3]; KJP000531594, 48 h, 1st pair of lines, read at 48 hr, isolate assigned by line order, read-out: Minimum Inhibitory Conc. (MIC), 48 hr.
  MIC: 1 µg/mL (≈ 3.27 µM)
[5]; JHCBC9951635, 24 h, Torulopsis glabrata, 2nd pair of lines, read at 24 hr, read-out: Minimum Inhibitory Conc. (MIC), 24 hr.
  MIC: 2 µg/mL (≈ 6.53 µM)
[5]; JHCBC9951635, 48 h, Torulopsis glabrata, 2nd pair of lines, read at 48 hr, read-out: Minimum Inhibitory Conc. (MIC), 48 hr.
  MIC: 8 µg/mL (≈ 26.1 µM)
[5]; [12]
  Minimum Inhibitory Conc. (MIC), 48 hr.: 4 µg/mL
[7]; [14]
  Minimum Inhibitory Conc. (MIC), 72 hr.: 64 µg/mL
[7]; Cryptococcus neoformans, 48 h, Cryptococcus neoformans, 1st pair of lines, read at 48 hr, isolate assigned by line order, read-out: Minimum Inhibitory Conc. (MIC), 48 hr.
  MIC: > 64 µg/mL
[7]; Cryptococcus neoformans, 72 h, Cryptococcus neoformans, 1st pair of lines, read at 72 hr, isolate assigned by line order, read-out: Minimum Inhibitory Conc. (MIC), 72 hr.
  MIC: > 64 µg/mL
[8]; Cryptococcus neoformans, SLPBC0012854, 48 h, Cryptococcus neoformans, 2nd pair of lines, read at 48 hr, isolate assigned by line order, read-out: Minimum Inhibitory Conc. (MIC), 48 hr.
  MIC: 4 µg/mL (≈ 13.1 µM)
[8]; Cryptococcus neoformans, SLPBC0012854, 72 h, Cryptococcus neoformans, 2nd pair of lines, read at 72 hr, isolate assigned by line order, read-out: Minimum Inhibitory Conc. (MIC), 72 hr.
  MIC: 4 µg/mL (≈ 13.1 µM)

## COC(=O)c1cc2cc(OCc3ccccc3)ccc2n1CCCCCCCCC[n+]1ccccc1 [Compound 230]
[1]; Candida tropicalis, ATCC750, 24 h, read-out: Minimum Inhibitory Conc. (MIC), 24 hr.
  MIC: 1 µg/mL
[1]; Candida tropicalis, ATCC750, 48 h, read-out: Minimum Inhibitory Conc. (MIC), 48 hr.
  MIC: 1 µg/mL
[2]; Candida tropicalis, ATCC28707, 24 h, read-out: Minimum Inhibitory Conc. (MIC), 24 hr.
  MIC: 0.5 µg/mL
[2]; Candida tropicalis, ATCC28707, 48 h, read-out: Minimum Inhibitory Conc. (MIC), 48 hr.
  MIC: 0.5 µg/mL
[3]; [9]
  Minimum Inhibitory Conc. (MIC), 24 hr.: 0.5 µg/mL
[3]; KJP000531594, 24 h, read-out: Minimum Inhibitory Conc. (MIC), 24 hr., Candida albicans, 1st pair of lines, read at 24 hr, isolate not given, assigned by line order and MLC of Table 4B
  MIC: 1 µg/mL
[3]; KJP000531594, 48 h, read-out: Minimum Inhibitory Conc. (MIC), 48 hr., Candida albicans, 1st pair of lines, read at 48 hr, isolate assigned by line order
  MIC: 1 µg/mL
[4]; Candida albicans, LH000664533, 24 h, read-out: Minimum Inhibitory Conc. (MIC), 24 hr.
  MIC: 1 µg/mL
[4]; Candida albicans, LH000664533, 48 h, read-out: Minimum Inhibitory Conc. (MIC), 48 hr.
  MIC: 1 µg/mL
[5]; JHCBC9951635, 24 h, read-out: Minimum Inhibitory Conc. (MIC), 24 hr., Torulopsis glabrata, 2nd pair of lines, read at 24 hr
  MIC: 1 µg/mL
[5]; JHCBC9951635, 48 h, read-out: Minimum Inhibitory Conc. (MIC), 48 hr., Torulopsis glabrata, 2nd pair of lines, read at 48 hr
  MIC: 2 µg/mL
[5]; [11]
  Minimum Inhibitory Conc. (MIC), 24 hr.: 2 µg/mL
[6]; ERHBC9938274, 24 h, read-out: Minimum Inhibitory Conc. (MIC), 24 hr., Torulopsis glabrata, 1st pair of lines, read at 24 hr, isolate assigned by line order
  MIC: 1 µg/mL
[6]; ERHBC9938274, 48 h, read-out: Minimum Inhibitory Conc. (MIC), 48 hr., Torulopsis glabrata, 1st pair of lines, read at 48 hr, isolate assigned by line order
  MIC: 2 µg/mL
[6]; [13]
  Minimum Inhibitory Conc. (MIC), 24 hr.: 2 µg/mL
[7]; Cryptococcus neoformans, 48 h, read-out: Minimum Inhibitory Conc. (MIC), 48 hr.
  MIC: 1 µg/mL
[7]; Cryptococcus neoformans, 72 h, read-out: Minimum Inhibitory Conc. (MIC), 72 hr.
  MIC: 1 µg/mL
[8]; Cryptococcus neoformans, SLPBC0012854, 48 h, read-out: Minimum Inhibitory Conc. (MIC), 48 hr.
  MIC: 1 µg/mL
[8]; Cryptococcus neoformans, SLPBC0012854, 72 h, read-out: Minimum Inhibitory Conc. (MIC), 72 hr.
  MIC: 1 µg/mL

## Fc1cc(F)c2[nH]c(CCCC[n+]3cccc4ccccc43)cc2c1 [Compound 0409]
[1]
  Minimum Lethal Concentration (MLC), A: 1 µg/mL
[2]
  Minimum Lethal Concentration (MLC), B: 0.5 µg/mL
[3]
  Minimum Lethal Concentration (MLC), C: 1 µg/mL
[4]
  Minimum Lethal Concentration (MLC), D: 1 µg/mL
[5]
  Minimum Lethal Concentration (MLC), E: 2 µg/mL
[6]
  Minimum Lethal Concentration (MLC), F: 2 µg/mL
[7]
  Minimum Lethal Concentration (MLC), G: 2 µg/mL
[8]
  Minimum Lethal Concentration (MLC), H: 2 µg/mL

## COC(=O)c1cc2cc(OCc3ccccc3)ccc2n1CCCCCCOC(=O)c1cccnc1 [Compound 0951]
[1]
  Minimum Lethal Concentration (MLC), A: 1 µg/mL
[2]
  Minimum Lethal Concentration (MLC), B: 1 µg/mL
[3]
  Minimum Lethal Concentration (MLC), C: 1 µg/mL
[4]
  Minimum Lethal Concentration (MLC), D: 2 µg/mL
[5]
  Minimum Lethal Concentration (MLC), E: 2 µg/mL
[6]
  Minimum Lethal Concentration (MLC), F: 2 µg/mL
[7]
  Minimum Lethal Concentration (MLC), G: 4 µg/mL
[8]
  Minimum Lethal Concentration (MLC), H: 4 µg/mL
